# What was measured:
# PameOBP1 = PameOBP1 (Periplaneta americana, UniProt B6E9U7); assay: Binding of fluorescent probe 1-NPN to PameOBP1 (saturation, Scatchard); conditions: read-out: dissociation constant of 1-NPN for PameOBP1
# Method: (§1) Emission fluorescence spectra were measured on a Hitachi F-4500 fluorescence spectrophotometer following our previous studies. Firstly, dissociation constants of the PameOBPs for N-phenyl-1-naphtylamine (1-NPN) were calculated to determine the suitability of 1-NPN as a fluorescence reporter. After the determination of the reporter, the affinities of the PameOBPs for each ligand were measured using 2 μM 1-NPN as the fluorescent reporter and 0.25–2.5 μM or 2–40 μM as competitor, in at least three technical replicates. The binding data were analyzed following our previous studies.
# (§2) To investigate the role of three PameOBPs in the detection of odorants, we firstly tested the binding affinity of PameOBPs to fluorescent probe 1-NPN. […] Saturation and linear Scatchard plots (Fig 5A) indicated single binding sites in the proteins with no allosteric effects. We were, therefore, able to use the fluorescence competitive binding assay to determine the binding affinities of these three PameOBPs to 87 odorants from apple, grape, peach, pear, the juice of these fruits, and beer.
# PameOBP2 = PameOBP2 (Periplaneta americana, UniProt B6E9U8); assay: Binding of fluorescent probe 1-NPN to PameOBP2 (saturation, Scatchard); conditions: read-out: dissociation constant of 1-NPN for PameOBP2
# Method: as §1, §2
# PameOBP3 = PameOBP3 (Periplaneta americana, UniProt B6E9U9); assay: Binding of fluorescent probe 1-NPN to PameOBP3 (saturation, Scatchard); conditions: read-out: dissociation constant of 1-NPN for PameOBP3
# Method: as §1, §2
# PameOBP2, sequence (B6E9U8 entry or part of it): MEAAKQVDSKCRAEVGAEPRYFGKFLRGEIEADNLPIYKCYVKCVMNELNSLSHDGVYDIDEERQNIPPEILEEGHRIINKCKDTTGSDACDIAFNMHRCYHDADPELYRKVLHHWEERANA
# PameOBP1, sequence (B6E9U7 entry or part of it): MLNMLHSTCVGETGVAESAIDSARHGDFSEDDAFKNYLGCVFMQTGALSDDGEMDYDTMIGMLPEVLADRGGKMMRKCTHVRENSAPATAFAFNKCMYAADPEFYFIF
# PameOBP3, sequence (B6E9U9 entry or part of it): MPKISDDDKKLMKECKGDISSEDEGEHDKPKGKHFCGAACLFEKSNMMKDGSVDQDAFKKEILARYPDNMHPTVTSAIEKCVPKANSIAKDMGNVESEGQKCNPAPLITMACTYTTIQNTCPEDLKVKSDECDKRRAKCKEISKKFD
smiles,measurement,setting,value
"c1ccc(Nc2cccc3ccccc23)cc1 [1-NPN, N-phenyl-1-naphtylamine]",Kd,PameOBP1,20.5 µM
same,Kd,PameOBP2,8.04 µM
same,Kd,PameOBP3,24.9 µM
